Reference: patent US9113629B2, “4-amino-6-(4-substituted-phenyl)-picolinates and 6-amino-2-(4-substituted-phenyl)-pyrimidine-4-carboxylates and their use as herbicides” (DOW AGROSCIENCES LLC, priority 2013, dated 2015)
Where two headings read alike, the source gives them in different places.

How the values were obtained:
[1] = system: Key Broadleaf Weed and Crop Species; test: Post-emergent Test II herbicidal activity (Table 5); format: in vivo; conditions: post-emergence, 336 h, post-emergent, 14 days after application; for pest or weed control at 70 g/ha: application rate 70 g ai/ha; for pest or weed control at 140 g/ha: application rate 140 g ai/ha
Outline: (§1)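 Foliar application at 187 L/ha to greenhouse-grown seedlings (first or second true leaf); subirrigation thereafter. Visual 0–100% injury at 14 d relative to untreated plants.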

[2] = system: Key Grass and Sedge Weeds as well as Grass Crops; test: Post-emergent Test II herbicidal activity (Table 6); format: in vivo; conditions: post-emergence, 336 h; for pest or weed control at 70 g/ha: application rate 70 g ai/ha; for pest or weed control at 140 g/ha: application rate 140 g ai/ha
Outline: as §1

[3] = ABUTH: velvetleaf (Abutilon theophrasti), read-out: Visual Growth Reduction (%) 14 Days After Application, ABUTH
[4] = AMARE: redroot pigweed (Amaranthus retroflexus), read-out: Visual Growth Reduction (%) 14 Days After Application, AMARE
[5] = BRSNN: oilseed-rape, canola (Brassica napus), read-out: Visual Growth Reduction (%) 14 Days After Application, BRSNN
[6] = CHEAL: lambsquarters (Chenopodium album), read-out: Visual Growth Reduction (%) 14 Days After Application, CHEAL
[7] = EPHHL: wild poinsettia (Euphorbia heterophylla), read-out: Visual Growth Reduction (%) 14 Days After Application, EPHHL
[8] = HELAN: sunflower (Helianthus annuus), read-out: Visual Growth Reduction (%) 14 Days After Application, HELAN
[9] = VIOTR: wild pansy (Viola tricolor), read-out: Visual Growth Reduction (%) 14 Days After Application, VIOTR
[10] = CYPES: yellow nutsedge (Cyperus esculentus), read-out: Visual Growth Reduction (%) 14 Days After Application, CYPES
[11] = DIGSA: crabgrass (Digitaria sanguinalis), read-out: Visual Growth Reduction (%) 14 Days After Application, DIGSA
[12] = ECHCG: barnyardgrass (Echinochloa crus-galli), read-out: Visual Growth Reduction (%) 14 Days After Application, ECHCG
[13] = ORYSA: rice (Oryza sativa), read-out: Visual Growth Reduction (%) 14 Days After Application, ORYSA
[14] = SETFA: giant foxtail (Setaria faberi), read-out: Visual Growth Reduction (%) 14 Days After Application, SETFA
[15] = SORVU: grain sorghum (Sorghum vulgare), read-out: Visual Growth Reduction (%) 14 Days After Application, SORVU
[16] = TRZSS (wheat, Triticum aestivum), read-out: Visual Growth Reduction (%) 14 Days After Application, TRZSS
[17] = ZEAMX: maize, corn (Zea mays), read-out: Visual Growth Reduction (%) 14 Days After Application, ZEAMX

melting point: 86.1 to 88.4 °C
Structure (SMILES): Nc1c(F)c(-c2cc(F)c(C(F)F)cc2F)nc(C(=O)O)c1Cl [Compound 178]
pest or weed control at 70 g/ha [1, 3]: 75 to 84%
pest or weed control at 140 g/ha [1, 3]: 75 to 84%
pest or weed control at 70 g/ha [1, 4]: 95 to 100%
pest or weed control at 140 g/ha [1, 4]: 95 to 100%
pest or weed control at 70 g/ha [1, 5]: 95 to 100%
pest or weed control at 140 g/ha [1, 5]: 95 to 100%
pest or weed control at 70 g/ha [1, 6]: 95 to 100%
pest or weed control at 140 g/ha [1, 6]: 95 to 100%
pest or weed control at 70 g/ha [1, 7]: 85 to 94%
pest or weed control at 140 g/ha [1, 7]: 95 to 100%
pest or weed control at 70 g/ha [1, 8]: 95 to 100%
pest or weed control at 140 g/ha [1, 8]: 95 to 100%
pest or weed control at 70 g/ha [1, 9]: 30 to 44%
pest or weed control at 140 g/ha [1, 9]: 45 to 59%
pest or weed control at 70 g/ha [2, 10]: 85 to 94%
pest or weed control at 140 g/ha [2, 10]: 85 to 94%
pest or weed control at 70 g/ha [2, 11]: 0 to 29%
pest or weed control at 140 g/ha [2, 11]: 45 to 59%
pest or weed control at 70 g/ha [2, 12]: 60 to 74%
pest or weed control at 140 g/ha [2, 12]: 85 to 94%
pest or weed control at 70 g/ha [2, 13]: 0 to 29%
pest or weed control at 140 g/ha [2, 13]: 0 to 29%
pest or weed control at 70 g/ha [2, 14]: 85 to 94%
pest or weed control at 140 g/ha [2, 14]: 85 to 94%
pest or weed control at 70 g/ha [2, 15]: 45 to 59%
pest or weed control at 140 g/ha [2, 15]: 60 to 74%
pest or weed control at 70 g/ha [2, 16]: 30 to 44%
pest or weed control at 140 g/ha [2, 16]: 45 to 59%
pest or weed control at 70 g/ha [2, 17]: 0 to 29%
pest or weed control at 140 g/ha [2, 17]: 30 to 44%
